Experimental data as given in ChEMBL document CHEMBL1949508, “The selective cytotoxic activity in breast cancer cells by an anthranilic alcohol-derived acyclic 5-fluorouracil O,N-acetal is mediated by endoplasmic reticulum stress-induced apoptosis” (Eur J Med Chem, 2012).
Calls of active or inactive are those of the source.

How the values were obtained:
MCF7 [1] = assay: Downregulation of FAIM gene in human MCF7 cells at 1.09 uM after 48 hrs by microarray hybridization relative to control; type: functional
MCF7 [2] = assay: Downregulation of CCL2 gene in human MCF7 cells at 1.09 uM after 48 hrs by microarray hybridization relative to control; type: functional
MCF-10A [3] = assay: Upregulation of BBC3 gene in human MCF10A cells at 37.67 uM after 48 hrs by microarray hybridization relative to control; type: functional, cell-based
MCF-10A [4] = assay: Upregulation of MTL5 gene in human MCF10A cells at 37.67 uM after 48 hrs by microarray hybridization relative to control; type: functional, cell-based
MCF-10A [5] = assay: Upregulation of BMF gene in human MCF10A cells at 37.67 uM after 48 hrs by microarray hybridization relative to control; type: functional, cell-based
MCF-10A [6] = assay: Upregulation of BNIP3L gene in human MCF10A cells at 37.67 uM after 48 hrs by microarray hybridization relative to control; type: functional, cell-based
MCF-10A [7] = assay: Upregulation of BNIP3 gene in human MCF10A cells at 37.67 uM after 48 hrs by microarray hybridization relative to control; type: functional, cell-based
MCF-10A [8] = assay: Upregulation of GADD45A gene in human MCF10A cells at 37.67 uM after 48 hrs by microarray hybridization relative to control; type: functional, cell-based
MCF-10A [9] = assay: Upregulation of CARD14 gene in human MCF10A cells at 37.67 uM after 48 hrs by microarray hybridization relative to control; type: functional, cell-based
MCF-10A [10] = assay: Upregulation of GADD45B gene in human MCF10A cells at 37.67 uM after 48 hrs by microarray hybridization relative to control; type: functional, cell-based
MCF-10A [11] = assay: Upregulation of DNASE1 gene in human MCF10A cells at 37.67 uM after 48 hrs by microarray hybridization relative to control; type: functional, cell-based
MCF-10A [12] = assay: Upregulation of NOXA gene in human MCF10A cells at 37.67 uM after 48 hrs by microarray hybridization relative to control; type: functional, cell-based
MCF-10A [13] = assay: Downregulation of UNC5C gene in human MCF10A cells at 37.67 uM after 48 hrs by microarray hybridization relative to control; type: functional, cell-based
MCF-10A [14] = assay: Downregulation of CARD9 gene in human MCF10A cells at 37.67 uM after 48 hrs by microarray hybridization relative to control; type: functional, cell-based
MCF-10A [15] = assay: Downregulation of AVEN gene in human MCF10A cells at 37.67 uM after 48 hrs by microarray hybridization relative to control; type: functional, cell-based
MCF-10A [16] = assay: Downregulation of BCL2 gene in human MCF10A cells at 37.67 uM after 48 hrs by microarray hybridization relative to control; type: functional, cell-based
MCF-10A [17] = assay: Downregulation of BAG2 gene in human MCF10A cells at 37.67 uM after 48 hrs by microarray hybridization relative to control; type: functional, cell-based
MCF-10A [18] = assay: Downregulation of CD14 gene in human MCF10A cells at 37.67 uM after 48 hrs by microarray hybridization relative to control; type: functional, cell-based
MCF-10A [19] = assay: Downregulation of E2F1 gene in human MCF10A cells at 37.67 uM after 48 hrs by microarray hybridization relative to control; type: functional, cell-based
MCF-10A [20] = assay: Downregulation of […] gene in human MCF10A cells at 37.67 uM after 48 hrs by microarray hybridization relative to control; type: functional, cell-based
MCF-10A [21] = assay: Downregulation of TP5313 gene in human MCF10A cells at 37.67 uM after 48 hrs by microarray hybridization relative to control; type: functional, cell-based
MCF-10A [22] = assay: Downregulation of FAIM gene in human MCF10A cells at 37.67 uM after 48 hrs by microarray hybridization relative to control; type: functional, cell-based
MCF-10A [23] = assay: Downregulation of CCL2 gene in human MCF10A cells at 37.67 uM after 48 hrs by microarray hybridization relative to control; type: functional, cell-based
MCF7 [24] = assay: Upregulation of BBC3 gene in human MCF7 cells at 1.09 uM after 48 hrs by quantitative RT-PCR analysis; type: functional, cell-based
MCF-10A [25] = assay: Upregulation of BBC3 gene in human MCF10A cells at 37.67 uM after 48 hrs by quantitative RT-PCR analysis; type: functional, cell-based
MCF7 [26] = assay: Upregulation of NOXA gene in human MCF7 cells at 1.09 uM after 48 hrs by quantitative RT-PCR analysis; type: functional, cell-based
MCF7 [27] = assay: Modulation of p53 gene expression in human MCF7 cells at 1.09 uM after 48 hrs by quantitative RT-PCR analysis; type: functional, cell-based
MCF7 [28] = assay: Modulation of Apaf-1 gene expression in human MCF7 cells at 1.09 uM after 48 hrs by quantitative RT-PCR analysis; type: functional, cell-based
MCF7 [29] = assay: Downregulation of Bcl2 gene expression in human MCF7 cells at 1.09 uM after 48 hrs by quantitative RT-PCR analysis; type: functional, cell-based
MCF7 [30] = assay: Upregulation of BBC3 protein expression in human MCF7 cells at […] after 48 hrs by Western blot analysis relative to control; type: functional
MCF-10A [31] = assay: Upregulation of BBC3 protein expression in human MCF10A cells at 37.67 uM after 48 hrs by Western blot analysis relative to control; type: functional
[32] = Therapeutic index, ratio of IC50 for human MCF10A cells to IC50 for human MCF7 cells; type: cell-based; settings: MCF10A cells and MCF7 cells, read-out: Ratio IC50

COC(CN(c1ccccc1CO)S(=O)(=O)c1ccccc1N)n1cc(F)c(=O)[nH]c1=O (racemic)
-3.1: fold change (FC) (MCF7 [1])
2.74: fold change (FC) (MCF7 [30])
inactive: Activity (MCF-10A [3]) | Activity (MCF-10A [4]) | Activity (MCF-10A [5]) | Activity (MCF-10A [6]) | Activity (MCF-10A [7]) | Activity (MCF-10A [8]) | Activity (MCF-10A [9]) | Activity (MCF-10A [10]) | Activity (MCF-10A [11]) | Activity (MCF-10A [12]) | Activity (MCF-10A [13]) | Activity (MCF-10A [14]) | Activity (MCF-10A [15]) | Activity (MCF-10A [16]) | Activity (MCF-10A [17]) | Activity (MCF-10A [18]) | Activity (MCF-10A [19]) | Activity (MCF-10A [20]) | Activity (MCF-10A [21]) | Activity (MCF-10A [22]) | Activity (MCF-10A [23]) | Activity (MCF-10A [25]) | Activity (MCF7 [27]) | Activity (MCF7 [28])
-3.77: fold change (FC) (MCF7 [2])
1.13: fold change (FC) (MCF-10A [31])
34.5: selectivity ratio [32]
active: Activity (MCF7 [24]) | Activity (MCF7 [26]) | Activity (MCF7 [29])
